Experimental data published in the supplement of paper PMC10331698.
± gives the standard deviation of the averaged measurements.

Columns and labels:
Experiment in all cases: level (log10 ratio to DMSO vehicle control); higher = higher biomarker level / cell amount than vehicle control
Details in all cases: in DMSO
[1] = compound: CC(C)(C)C(=O)CC(=O)C(F)(F)C(F)(F)C(F)(F)F [(Heptafluorobutanoyl)pivaloylmethane]
Method: (§1)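 BioMAP Diversity Plus panel of 12 human primary cell co-culture systems (3C, 4H, LPS, SAg, BT, BF4T, BE3C, CASM3C, HDF3CGF, KF3CT, MyoF, Mphg). Compounds were added 1 h before stimulation and left for 24 h (MyoF 48 h; BT 72 h for soluble read-outs or 6 d for IgG). Biomarkers were read by ELISA, cytotoxicity by SRB, PBMC viability and proliferation by Alamar Blue. Each well value was divided by the mean of 8 DMSO control wells on the same plate and log10 transformed; duplicate blinded samples were tested at 4 concentrations.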

[2] = compound: CCCCCCCCC(F)(F)C(F)(F)C(F)(F)C(F)(F)C(F)(F)C(F)(F)F [1-(Perfluorohexyl)octane]
Method: as §1

[3] = compound: FC(F)(F)C(F)(F)C(F)(F)C(F)(F)C(F)(F)C(F)(F)C(F)(F)CCI [1-Iodo-1H,1H,2H,2H-perfluorononane]
Method: as §1

[4] = compound: N=C(N)C(F)(F)C(F)(F)C(F)(F)C(F)(F)C(F)(F)C(F)(F)C(F)(F)F [Perfluorooctanamidine]
Method: as §1

[5] = compound: NC(=O)C(F)(F)C(F)(F)C(F)(F)C(F)(F)C(F)(F)C(F)(F)C(F)(F)F [Perfluorooctanamide]
Method: as §1

[6] = compound: O=C(O)C(F)(F)C(F)(F)C(F)(F)C(=O)O [Hexafluoroglutaric acid]
Method: as §1

[7] = compound: O=S(=O)(O)C(F)(F)C(F)(F)C(F)(F)C(F)(F)C(F)(F)C(F)(F)C(F)(F)C(F)(F)F [Perfluorooctanesulfonic acid]
Method: as §1

Test System | level (log10) ([1]; 6700 nM) | level (log10) ([1]; 20000 nM) | level (log10) ([1]; 60000 nM) | level (log10) ([2]; 6700 nM) | level (log10) ([2]; 20000 nM) | level (log10) ([3]; 6700 nM) | level (log10) ([3]; 20000 nM) | level (log10) ([4]; 6700 nM) | level (log10) ([4]; 20000 nM) | level (log10) ([4]; 60000 nM) | level (log10) ([5]; 6700 nM) | level (log10) ([5]; 20000 nM) | level (log10) ([5]; 60000 nM) | level (log10) ([6]; 6700 nM) | level (log10) ([6]; 20000 nM) | level (log10) ([6]; 60000 nM) | level (log10) ([7]; 6700 nM) | level (log10) ([7]; 20000 nM) | level (log10) ([7]; 60000 nM)
MyoF:Collagen IV | -0.0345 ± 0.021 | -0.0295 ± 0.0092 | 0.0005 ± 0.0021 | 0.0135 ± 0.0064 | 0.0505 ± 0.069 | 0.027 ± 0.0042 | 0.082 ± 0.018 | 0.0195 ± 0.03 | 0.044 ± 0.018 | 0.117 | -0.0335 ± 0.026 | -0.0345 ± 0.042 | -0.079 ± 0.064 | -0.004 ± 0.013 | 0.002 ± 0.021 | -0.0055 ± 0.0064 | 0.0045 ± 0.039 | -0.0005 ± 0.005 | 0.037 ± 0.034
MyoF:Decorin | 0.0195 ± 0.059 | 0.018 ± 0.03 | 0.0365 ± 0.021 | 0.005 ± 0.011 | 0.0265 ± 0.032 | 0.014 ± 0.0042 | 0.038 ± 0.05 | 0.004 ± 0.0099 | 0.0055 ± 0.013 | 0.07 | -0.0145 ± 0.05 | 0.027 ± 0.078 | 0.0305 ± 0.04 | -0.0145 ± 0.0078 | -0.0225 ± 0.0064 | -0.031 ± 0.0099 | 0.018 ± 0.0071 | 0.0365 ± 0.013 | 0.054 ± 0.018
MyoF:MMP-1 | -0.036 ± 0.013 | -0.0255 ± 0.025 | 0.025 ± 0.058 | -0.002 ± 0.017 | -0.01 ± 0.0085 | -0.012 ± 0.013 | -0.0145 ± 0.025 | -0.025 ± 0.024 | -0.01 | 0.062 | -0.0075 ± 0.011 | -0.013 ± 0.04 | -0.0045 ± 0.026 | 0 ± 0.0085 | -0.0115 ± 0.012 | -0.008 ± 0.014 | -0.031 ± 0.0014 | -0.031 ± 0.013 | 0.038 ± 0.048
MyoF:PAI-I | 0.009 ± 0.016 | 0.009 ± 0.024 | 0.0195 ± 0.018 | -0.008 ± 0.0014 | -0.007 ± 0.0042 | -0.002 ± 0.02 | -0.0025 ± 0.0035 | 0.0015 ± 0.0064 | -0.0075 ± 0.013 | 0.021 | -0.009 | -0.014 ± 0.0071 | 0.005 ± 0.0014 | -0.0025 ± 0.021 | -0.0035 ± 0.015 | 0.003 | 0.003 ± 0.017 | -0.0105 ± 0.0064 | -0.0055 ± 0.0092
MyoF:SRB | -0.0015 ± 0.0064 | -0.0085 ± 0.012 | -0.002 ± 0.0057 | 0.011 ± 0.016 | 0.006 ± 0.0042 | 0.016 ± 0.0014 | 0.0325 ± 0.0021 | 0.007 ± 0.0028 | -0.003 ± 0.0042 | 0.013 | -0.006 ± 0.0042 | 0.0045 ± 0.012 | -0.0055 ± 0.011 | 0.0015 ± 0.00071 | -0.002 ± 0.0085 | -0.0045 ± 0.0092 | -0.0045 ± 0.00071 | -0.0155 ± 0.00071 | -0.0185 ± 0.019
MyoF:TIMP-1 | 0.0095 ± 0.028 | 0.0135 ± 0.06 | 0.009 ± 0.047 | -0.0265 ± 0.015 | -0.0465 ± 0.023 | -0.002 ± 0.054 | 0.0165 ± 0.042 | 0.0185 ± 0.011 | 0.041 | 0.123 | -0.016 ± 0.014 | 0.0075 ± 0.012 | -0.0375 ± 0.0021 | 0.001 ± 0.014 | -0.0545 ± 0.053 | -0.0205 ± 0.0035 | -0.002 ± 0.03 | 0.003 ± 0.0071 | 0.102 ± 0.0021
MyoF:alpha-SM Actin | -0.006 ± 0.05 | -0.002 ± 0.034 | -0.0215 ± 0.0021 | -0.0125 ± 0.032 | -0.0095 ± 0.0078 | -0.016 ± 0.02 | -0.0435 ± 0.0035 | 0.0015 ± 0.054 | -0.009 ± 0.042 | 0.066 | -0.0095 ± 0.005 | -0.023 ± 0.017 | -0.045 ± 0.0085 | -0.008 ± 0.044 | -0.0065 ± 0.029 | 0.033 ± 0.017 | -0.0015 ± 0.023 | 0.004 ± 0.035 | 0.0105 ± 0.005
MyoF:bFGF | 0.002 ± 0.0028 | 0.0065 ± 0.0035 | 0.021 ± 0.0071 | -0.0025 ± 0.012 | 0.0045 ± 0.005 | 0.01 ± 0.0014 | 0.021 ± 0.017 | -0.0085 ± 0.032 | -0.0115 ± 0.03 | 0.044 | -0.005 ± 0.0014 | -0.0055 ± 0.015 | 0.007 ± 0.0014 | 0.01 ± 0.014 | 0.0105 ± 0.013 | 0.017 ± 0.0014 | -0.004 | -0.0185 ± 0.028 | -0.0125 ± 0.018
lMphg:CCL2/MCP-1 | -0.0135 ± 0.025 | -0.018 ± 0.0071 | -0.0255 ± 0.021 | -0.0225 ± 0.022 | 0.0065 ± 0.025 | -0.014 ± 0.0071 | 0.0385 ± 0.032 | -0.03 ± 0.016 | -0.006 ± 0.0085 | 0.021 | 0.012 ± 0.013 | 0.001 ± 0.025 | -0.0235 ± 0.035 | -0.046 ± 0.052 | -0.0305 ± 0.037 | -0.0235 ± 0.011 | -0.0055 ± 0.0092 | 0.0015 ± 0.0064 | -0.0075 ± 0.04
lMphg:CCL3/MIP-1alpha | -0.011 ± 0.021 | -0.0185 ± 0.013 | -0.067 ± 0.11 | -0.022 ± 0.021 | 0.0035 ± 0.021 | -0.001 | 0.045 ± 0.033 | -0.029 ± 0.03 | 0.0015 ± 0.035 | 0.055 | -0.0155 ± 0.0064 | -0.021 ± 0.017 | -0.028 ± 0.024 | -0.0025 ± 0.0078 | 0.0125 ± 0.015 | -0.024 ± 0.052 | -0.0225 ± 0.011 | -0.007 | -0.0035 ± 0.0078
